One experiment deals with S. pneumoniae serotype 1. The arrangement: species or system mice. To be noted: mouse, in vivo.
The subject of another experiment is S. pneumoniae. To be noted: exogenous activation of lung iNKT cells; high dose of bacteria; no previous influenza; cited from earlier work.
Another experiment has as its system iNKT cells. Nature of the experiment: Analysis of lung iNKT cell activation (intracellular IFN-γ, flow cytometry). It counts as in vivo, mice. To be noted: lung iNKT cells of IAV-experienced animals (day 7 post-IAV) compared with naïve animals; i.n. administration. (Flow cytometry measures light scatter and fluorescence of single cells or particles in a stream.)

Results on 1 compound are retold here after patent US20150224129A1 (priority 2012, published 2015).

As to `CCCCCCCCCCCCCCCCCCCCCCCCCC(=O)N[C@@H](CO[C@H]1O[C@H](CO)[C@H](O)[C@H](O)[C@H]1O)[C@H](O)[C@H](O)CCCCCCCCCCCCCC` [α-GalCer, α-galactosylceramide], the “protection against S. pneumoniae challenge, as assessed by the enhanced survival rate” value with S. pneumoniae serotype 1 was ~70%. Besides, the “clearance of S. pneumoniae” value with S. pneumoniae is “leads to the clearance of S. pneumoniae”. Further, in the experiment on iNKT cells, the “iNKT cell activation (IFN-γ production) in response to α-GalCer” value is on record as “leads to iNKT cell activation”.
